Data published in patent publication US20030208079A1, “Piperidinylaminomethyl trifluoromethyl cyclic ether compounds as substance P antagonists” (Pfizer Inc., priority 1997, published 2003).

Test system: plasma protein extravasation in the ureter
Experiment: capsaicin-induced plasma extravasation test
Format: in vivo
Conditions: 0.03 mg/kg, given orally 1 hour before capsaicin challenge, male guinea pigs
Experimental: In this test, anti-inflammatory activity is determined as the percent inhibition of plasma protein extravasation in the ureter of pentobarbital-anesthetized (25 mg/kg i.p.) male Hartey guinea pigs (weighing 300-350 g). Plasma extravasation is induced by intraperitoneal injection of capsaicin (30 μM in 0.1 BSA containing buffer, 10 ml/animal) into the animals, which are fasted overnight. The compounds of this invention were dissolved in 0.1% methyl cellulose-water and given orally 1 hour before capsaicin challenge. Evans blue dye (30 mg/kg) was administered intravenously 5 minutes before challenge. The animals were killed 10 minutes after capsaicin injection and both right and left ureter were removed. Tissue dye content was quantitated at 600 nm absorbance after overnight formamide extraction.

SMILES: COc1cc2c(cc1CN[C@H]1CCCN[C@H]1c1ccccc1)C(C)(C(F)(F)F)OCC2.Cl.Cl (stereo partly drawn) [Example 3, (2S,3S)-3-(6-Methoxy-1-methyl-1-trifluoromethylisochroman-7-yl)methylamino-2-phenylpiperidine Dihydrochloride]
- percent inhibition of plasma protein extravasation: 98%
